Laboratory results reported in patent US20230277534A1 (Plexxikon Inc., priority 2011, published 2023).

How the values were obtained:
B-Raf V600E = B-Raf V600E (Homo sapiens (Human), UniProt P15056, V600E); test: B-Raf V600E kinase biochemical activity assay (AlphaScreen, biotin-MEK1 substrate); conditions: 100 μM ATP
Summary of the method: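 B-Raf V600E (0.1 ng) phosphorylated 100 nM biotin-MEK1 with 100 μM ATP (final) in HEPES pH 7.0 with Mg2+/Mn2+ for 45 min at room temperature. Compounds were tested over an 8-point serial dilution. Phospho-MEK1/2 was detected by AlphaScreen after 3 h with beads, and IC50 came from signal versus concentration.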

[1] = tested on: COLO205 colon adenocarcinoma cells (B-Raf V600E mutation); test: COLO205 cell growth inhibition (ATPlite); format: cell-based; conditions: Homo sapiens, COLO 205, 72 h, 3 days
Summary of the method: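 Cells treated for 3 days at 37 °C, 5% CO2 with an 8-point 1:3 dilution series, top final concentration 10 μM, DMSO control. ATPlite luminescence used as a measure of cell number; IC50 from reading versus concentration.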

Sequence of B-Raf V600E (P15056 whole entry V600E): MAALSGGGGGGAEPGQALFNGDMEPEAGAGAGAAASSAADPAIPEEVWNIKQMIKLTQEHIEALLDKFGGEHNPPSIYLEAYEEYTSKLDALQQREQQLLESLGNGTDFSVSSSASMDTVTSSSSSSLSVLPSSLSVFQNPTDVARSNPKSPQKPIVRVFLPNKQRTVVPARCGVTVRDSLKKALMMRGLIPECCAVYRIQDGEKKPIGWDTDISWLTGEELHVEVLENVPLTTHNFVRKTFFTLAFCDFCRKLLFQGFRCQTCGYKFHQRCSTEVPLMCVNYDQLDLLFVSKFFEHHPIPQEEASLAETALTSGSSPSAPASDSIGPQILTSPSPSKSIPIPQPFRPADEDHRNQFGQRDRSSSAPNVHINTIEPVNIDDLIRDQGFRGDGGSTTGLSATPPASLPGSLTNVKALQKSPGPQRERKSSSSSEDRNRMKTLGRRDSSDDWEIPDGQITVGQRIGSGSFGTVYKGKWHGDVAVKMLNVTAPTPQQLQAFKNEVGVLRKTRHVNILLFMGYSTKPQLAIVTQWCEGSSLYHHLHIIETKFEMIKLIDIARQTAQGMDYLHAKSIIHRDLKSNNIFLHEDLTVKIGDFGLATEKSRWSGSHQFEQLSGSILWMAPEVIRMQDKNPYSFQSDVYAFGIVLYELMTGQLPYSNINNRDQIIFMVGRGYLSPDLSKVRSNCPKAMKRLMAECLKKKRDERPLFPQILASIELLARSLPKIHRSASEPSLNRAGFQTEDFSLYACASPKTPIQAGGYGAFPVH

| Structure (SMILES) | IC50 (B-Raf V600E) [µM] | IC50 [1] [µM] |
| --- | --- | --- |
| C[C@@H]1CCN(S(=O)(=O)Nc2cccc(C(=O)c3c[nH]c4ncc(-c5cnc(C6CC6)nc5)cc34)c2F)C1 [Compound P-0271, (3R)—N-[3-[5-(2-cyclopropylpyrimidin-5-yl)-1H-pyrrolo[2,3-b]pyridine-3-carbonyl]-2-fluoro-phenyl]-3-methyl-pyrrolidine-1-sulfonamide] | < 0.1 | < 1 |
| O=C(c1cccc(NS(=O)(=O)N2CCCC2)c1F)c1c[nH]c2ncc(C3CC3)cc12 [Compound P-0274, N-[3-(5-cyclopropyl-1H-pyrrolo[2,3-b]pyridine-3-carbonyl)-2-fluoro-phenyl]pyrrolidine-1-sulfonamide] | < 0.1 | > 1 |
| CCN(C)S(=O)(=O)Nc1ccc(F)c(C(=O)c2c[nH]c3ncc(-c4cnc(N5CCC(O)CC5)nc4)cc23)c1F [Compound P-0275, 3-[3-[[ethyl(methyl)sulfamoyl]amino]-2,6-difluoro-benzoyl]-5-[2-(4-hydroxy-1-piperidyl)pyrimidin-5-yl]-1H-pyrrolo[2,3-b]pyridine] | < 0.1 | < 1 |
| CCN(C)S(=O)(=O)Nc1ccc(F)c(C(=O)c2c[nH]c3ncc(-c4cccc(C5(C#N)CC5)c4)cc23)c1F [Compound P-0276, 5-[3-(1-cyanocyclopropyl)phenyl]-3-[3-[[ethyl(methyl)sulfamoyl]amino]-2,6-difluoro-benzoyl]-1H-pyrrolo[2,3-b]pyridine] | < 0.1 | > 1 |
| CCN(C)S(=O)(=O)Nc1ccc(F)c(C(=O)c2c[nH]c3ncc(-c4cnc(N5CCC5)nc4)cc23)c1F [Compound P-0277, 5-[2-(azetidin-1-yl)pyrimidin-5-yl]-3-[3-[[ethyl(methyl)sulfamoyl]amino]-2,6-difluoro-benzoyl]-1H-pyrrolo[2,3-b]pyridine] | > 0.1 | < 1 |
| Nc1ncc(-c2cnc3[nH]cc(C(=O)c4c(F)ccc(NS(=O)(=O)N5CCCC5)c4F)c3c2)cn1 [Compound P-0279, N-[3-[5-(2-aminopyrimidin-5-yl)-1H-pyrrolo[2,3-b]pyridine-3-carbonyl]-2,4-difluoro-phenyl]pyrrolidine-1-sulfonamide] | < 0.1 | < 1 |
| O=C(c1cccc(NS(=O)(=O)N2CCCC2)c1F)c1c[nH]c2ncc(-c3ccncc3)cc12 [Compound P-0281, N-[2-fluoro-3-[5-(4-pyridyl)-1H-pyrrolo[2,3-b]pyridine-3-carbonyl]phenyl]pyrrolidine-1-sulfonamide] | < 0.1 | < 1 |
| O=C(c1c(F)ccc(NS(=O)(=O)N2CCCC2)c1F)c1c[nH]c2ncc(-c3ccnc(N4CCOCC4)n3)cc12 [Compound P-0282, N-[2,4-difluoro-3-[5-(2-morpholinopyrimidin-4-yl)-1H-pyrrolo[2,3-b]pyridine-3-carbonyl]phenyl]pyrrolidine-1-sulfonamide] | < 0.1 | < 1 |
| CCN(C)S(=O)(=O)Nc1ccc(F)c(C(=O)c2c[nH]c3ncc(-c4ccnc(F)c4)cc23)c1F [Compound P-0283, 3-[3-[[ethyl(methyl)sulfamoyl]amino]-2,6-difluoro-benzoyl]-5-(2-fluoro-4-pyridyl)-1H-pyrrolo[2,3-b]pyridine] | < 0.1 | < 1 |
| CN1CCN(c2cc(-c3cnc4[nH]cc(C(=O)c5c(F)ccc(NS(=O)(=O)N6CCCC6)c5F)c4c3)ccn2)CC1 [Compound P-0285, N-[2,4-difluoro-3-[5-[2-(4-methylpiperazin-1-yl)-4-pyridyl]-1H-pyrrolo[2,3-b]pyridine-3-carbonyl]phenyl]pyrrolidine-1-sulfonamide] | < 0.1 | < 1 |
| O=C(c1c(F)ccc(NS(=O)(=O)N2CC[C@H](F)C2)c1F)c1c[nH]c2ncc(-c3cnc(C4CC4)nc3)cc12 [Compound P-0289, (3S)—N-[3-[5-(2-cyclopropylpyrimidin-5-yl)-1H-pyrrolo[2,3-b]pyridine-3-carbonyl]-2,4-difluoro-phenyl]-3-fluoro-pyrrolidine-1-sulfonamide] | < 0.1 | < 1 |
| CCN(C)S(=O)(=O)Nc1ccc(F)c(C(=O)c2c[nH]c3ncc(-c4cnc(N5CCCC5)nc4)cc23)c1F [Compound P-0293, 3-[3-[[ethyl(methyl)sulfamoyl]amino]-2,6-difluoro-benzoyl]-5-(2-pyrrolidin-1-ylpyrimidin-5-yl)-1H-pyrrolo[2,3-b]pyridine] | < 0.1 | < 1 |
| CCN(C)S(=O)(=O)Nc1cccc(C(=O)c2c[nH]c3ncc(C4CCC4)cc23)c1F [Compound P-0297, 5-cyclobutyl-3-[3-[[ethyl(methyl)sulfamoyl]amino]-2-fluoro-benzoyl]-1H-pyrrolo[2,3-b]pyridine] | < 0.1 | > 1 |
| CCN(C)S(=O)(=O)Nc1cccc(C(=O)c2c[nH]c3ncc(C4CC4)cc23)c1F [Compound P-0298, 5-cyclopropyl-3-[3-[[ethyl(methyl)sulfamoyl]amino]-2-fluoro-benzoyl]-1H-pyrrolo[2,3-b]pyridine] | < 0.1 | > 1 |
| Nc1cc(-c2cnc3[nH]cc(C(=O)c4cccc(NS(=O)(=O)N5CCCC5)c4F)c3c2)ncn1 [Compound P-0299, N-[3-[5-(6-aminopyrimidin-4-yl)-1H-pyrrolo[2,3-b]pyridine-3-carbonyl]-2-fluoro-phenyl]pyrrolidine-1-sulfonamide] | < 0.1 | > 1 |
| CCN(C)S(=O)(=O)Nc1ccc(F)c(C(=O)c2c[nH]c3ncc(-c4ccc(C(F)(F)F)cc4)cc23)c1F [Compound P-0301, 3-[3-[[ethyl(methyl)sulfamoyl]amino]-2,6-difluoro-benzoyl]-5-[4-(trifluoromethyl)phenyl]-1H-pyrrolo[2,3-b]pyridine] | < 0.1 | > 1 |
| CCN(C)S(=O)(=O)Nc1ccc(F)c(C(=O)c2c[nH]c3ncc(-c4ccc(N5CCCC5)cc4)cc23)c1F [Compound P-0303, 3-[3-[[ethyl(methyl)sulfamoyl]amino]-2,6-difluoro-benzoyl]-5-(4-pyrrolidin-1-ylphenyl)-1H-pyrrolo[2,3-b]pyridine] | < 0.1 | > 1 |
| CCN(C)S(=O)(=O)Nc1ccc(F)c(C(=O)c2c[nH]c3ncc(-c4ccc(-c5nnc(C)o5)cc4)cc23)c1F [Compound P-0304, 2-[4-[3-[3-[[ethyl(methyl)sulfamoyl]amino]-2,6-difluoro-benzoyl]-1H-pyrrolo[2,3-b]pyridin-5-yl]phenyl]-5-methyl-1,3,4-oxadiazole] | < 0.1 | < 1 |
| CCN(C)S(=O)(=O)Nc1ccc(F)c(C(=O)c2c[nH]c3ncc(-c4ccc(-c5nnc(NC)s5)cc4)cc23)c1F [Compound P-0305, 2-[4-[3-[3-[[ethyl(methyl)sulfamoyl]amino]-2,6-difluoro-benzoyl]-1H-pyrrolo[2,3-b]pyridin-5-yl]phenyl]-5-(methylamino)-1,3,4-thiadiazole] | < 0.1 | < 1 |
| CCN(C)S(=O)(=O)Nc1ccc(F)c(C(=O)c2c[nH]c3ncc(-c4cncc(C(C)(C)O)c4)cc23)c1F [Compound P-0306, 3-[3-[[ethyl(methyl)sulfamoyl]amino]-2,6-difluoro-benzoyl]-5-[5-(1-hydroxy-1-methyl-ethyl)-3-pyridyl]-1H-pyrrolo[2,3-b]pyridine] | < 0.1 | < 1 |
| CCN(C)S(=O)(=O)Nc1ccc(F)c(C(=O)c2c[nH]c3ncc(-c4ccc(C(C)(C)O)nc4)cc23)c1F [Compound P-0307, 3-[3-[[ethyl(methyl)sulfamoyl]amino]-2,6-difluoro-benzoyl]-5-[6-(1-hydroxy-1-methyl-ethyl)-3-pyridyl]-1H-pyrrolo[2,3-b]pyridine] | < 0.1 | < 1 |
| CCN(CC)c1ccc(-c2cnc3[nH]cc(C(=O)c4c(F)ccc(NS(=O)(=O)N(C)CC)c4F)c3c2)cc1 [Compound P-0308, 5-[4-(diethylamino)phenyl]-3-[3-[[ethyl(methyl)sulfamoyl]amino]-2,6-difluoro-benzoyl]-1H-pyrrolo[2,3-b]pyridine] | < 0.1 | < 1 |
| CCN(C)S(=O)(=O)Nc1ccc(F)c(C(=O)c2c[nH]c3ncc(-c4ccc5c(c4)NC(=O)C5)cc23)c1F [Compound P-0309, 3-[3-[[ethyl(methyl)sulfamoyl]amino]-2,6-difluoro-benzoyl]-5-(2-oxoindolin-6-yl)-1H-pyrrolo[2,3-b]pyridine] | < 0.1 | < 1 |
| CCN(C)S(=O)(=O)Nc1ccc(F)c(C(=O)c2c[nH]c3ncc(-c4ccc(-c5noc(C)n5)s4)cc23)c1F [Compound P-0310, 3-[5-[3-[3-[[ethyl(methyl)sulfamoyl]amino]-2,6-difluoro-benzoyl]-1H-pyrrolo[2,3-b]pyridin-5-yl]-2-thienyl]-5-methyl-1,2,4-oxadiazole] | < 0.1 | < 1 |
| CCN(C)S(=O)(=O)Nc1ccc(F)c(C(=O)c2c[nH]c3ncc(-c4ccc5nc(N)ncc5c4)cc23)c1F [Compound P-0311, 2-amino-6-[3-[3-[[ethyl(methyl)sulfamoyl]amino]-2,6-difluoro-benzoyl]-1H-pyrrolo[2,3-b]pyridin-5-yl]quinazoline] | < 0.1 | < 1 |
| CCN(C)S(=O)(=O)Nc1ccc(F)c(C(=O)c2c[nH]c3ncc(-c4ccc5nc(N(C)C)ncc5c4)cc23)c1F [Compound P-0313, 2-(dimethylamino)-6-[3-[3-1[[ethyl(methyl)sulfamoyl]amino]-2,6-difluoro-benzoyl]-1H-pyrrolo[2,3-b]pyridin-5-yl]quinazoline] | < 0.1 | < 1 |
| CCN(C)S(=O)(=O)Nc1ccc(F)c(C(=O)c2c[nH]c3ncc(-c4ccc(C5(O)CC5)cc4)cc23)c1F [Compound P-0314, 3-[3-1[[ethyl(methyl)sulfamoyl]amino]-2,6-difluoro-benzoyl]-5-[4-(1-hydroxycyclopropyl)phenyl]-1H-pyrrolo[2,3-b]pyridine] | < 0.1 | < 1 |
